Data reported in ChEMBL document CHEMBL1201862, “PubChem BioAssay data set” (2004).
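Grown in 96-well plates, cells were treated for 48 hours with each compound at five concentrations. Insufficient inhibition: endpoint recorded as highest concentration tested. Here, GI50 denotes the concentration required for 50% inhibition of growth.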 The source made the active and inactive calls. No stated cut-off is given here; in the data, active = GI50 up to about 1.1 µM and inactive = higher.

What was measured:
Experiment in all cases: NCI anticancer screen, dose series, 48 h
[1] = test system: M14
[2] = test system: HCT-116
[3] = test system: T47D
[4] = test system: MDA-MB-435
[5] = test system: DU-145
[6] = test system: SN12C
[7] = test system: A498
[8] = test system: MDA-N
[9] = test system: PC-3
[10] = test system: Malme-3M
[11] = test system: Hs-578T
[12] = test system: 786-0
[13] = test system: NCI-H522
[14] = test system: UO-31
[15] = test system: UACC-257
[16] = test system: KM12

| Compound | GI50 [1] | GI50 [2] | GI50 [3] | GI50 [4] | GI50 [5] | GI50 [6] | GI50 [7] | GI50 [8] | GI50 [9] | GI50 [10] | GI50 [11] | GI50 [12] | GI50 [13] | GI50 [14] | GI50 [15] | GI50 [16] |
| --- | --- | --- | --- | --- | --- | --- | --- | --- | --- | --- | --- | --- | --- | --- | --- | --- |
| CCOC(=O)C(SCCO)C(C(=O)OCC)n1ccc(=O)[nH]c1=O (stereo not drawn) | 27.3 µM (inactive) | 16.3 µM (inactive) | 38.1 µM (inactive) | 22.4 µM (inactive) | > 100 µM (inactive) | 22.1 µM (inactive) | 75 µM (inactive) | 34.8 µM (inactive) | > 64 µM (inactive) | 12.5 µM (inactive) | 36.6 µM (inactive) | 16.6 µM (inactive) | 3.77 µM (inactive) | > 92 µM (inactive) | > 63.7 µM (inactive) | 37 µM (inactive) |
| Oc1cc(Cl)cc2cc(Br)cnc12 | 1.56 µM (inactive) | 1.09 µM (active) | 7.28 µM (inactive) | 4.65 µM (inactive) | 5.14 µM (inactive) | 2.23 µM (inactive) | 27.7 µM (inactive) | 2.3 µM (inactive) | 2.57 µM (inactive) | 2.23 µM (inactive) | 4.62 µM (inactive) | 9.86 µM (inactive) | 2.74 µM (inactive) | 3.94 µM (inactive) | 2.63 µM (inactive) | 4.69 µM (inactive) |
| COC(=O)C1(F)C(=O)NC(=O)NC1O (stereo not drawn) | > 100 µM (inactive) | 50.8 µM (inactive) | > 100 µM (inactive) | > 100 µM (inactive) | > 100 µM (inactive) | > 100 µM (inactive) | > 100 µM (inactive) | > 100 µM (inactive) | 50.8 µM (inactive) | > 100 µM (inactive) | > 100 µM (inactive) | > 100 µM (inactive) | > 100 µM (inactive) | 59.4 µM (inactive) | > 100 µM (inactive) | 50.2 µM (inactive) |
| COc1ccc(C2c3cc4c(cc3OC(N3CCOCC3)C2C)OCO4)cc1OC (stereo not drawn) | 5.38 µM (inactive) | 4.75 µM (inactive) | 4.99 µM (inactive) | 2.04 µM (inactive) | 9.42 µM (inactive) | 22.6 µM (inactive) | 6.46 µM (inactive) | 1.86 µM (inactive) | 6.43 µM (inactive) | 11.1 µM (inactive) | 3.51 µM (inactive) | 8.15 µM (inactive) | 5.51 µM (inactive) | 18 µM (inactive) | 16.7 µM (inactive) | 4.46 µM (inactive) |
| C/C(CC(O)(C(F)(F)F)C(F)(F)F)=N/Nc1ccc([N+](=O)[O-])cc1[N+](=O)[O-] | 3.61 µM (inactive) | 1.75 µM (inactive) | 1.08 µM (active) | 3.15 µM (inactive) | 2.29 µM (inactive) | 3.7 µM (inactive) | 2.39 µM (inactive) | 4.46 µM (inactive) | 2.78 µM (inactive) | 2.11 µM (inactive) | 2.81 µM (inactive) | 3.5 µM (inactive) | 2.07 µM (inactive) | 2.32 µM (inactive) | 2.87 µM (inactive) | 3.21 µM (inactive) |
| C=C(Br)CN(C)CC(=C)Br | > 100 µM (inactive) | > 100 µM (inactive) | > 100 µM (inactive) | > 100 µM (inactive) | > 100 µM (inactive) | > 100 µM (inactive) | > 100 µM (inactive) | > 100 µM (inactive) | > 100 µM (inactive) | > 100 µM (inactive) | > 100 µM (inactive) | > 100 µM (inactive) | > 100 µM (inactive) | > 100 µM (inactive) | > 100 µM (inactive) | > 100 µM (inactive) |
| CC1C2CC(C(C3C(=O)C4CC3C(C)(C)C4C)C2=O)C1(C)C (stereo not drawn) | > 100 µM (inactive) | > 100 µM (inactive) | > 100 µM (inactive) | > 100 µM (inactive) | > 100 µM (inactive) | > 100 µM (inactive) | > 100 µM (inactive) | > 100 µM (inactive) | > 100 µM (inactive) | > 100 µM (inactive) | > 100 µM (inactive) | > 100 µM (inactive) | > 100 µM (inactive) | > 100 µM (inactive) | > 100 µM (inactive) | > 100 µM (inactive) |
| O=C1[C@@H]2[C@@H](CN3CN(c4ccccc4)N=C(c4ccccc4)[C@@]23c2ccccc2)C(=O)N1c1ccccc1 | 2.94 µM (inactive) | 5.07 µM (inactive) | 2.58 µM (inactive) | 5.68 µM (inactive) | 7.14 µM (inactive) | 6.58 µM (inactive) | 18.4 µM (inactive) | 5.19 µM (inactive) | 6.31 µM (inactive) | 1.82 µM (inactive) | 20.3 µM (inactive) | 1.88 µM (inactive) | 0.547 µM (active) | 1.73 µM (inactive) | 12 µM (inactive) | 14.3 µM (inactive) |
| CC(CO)(CO)N1C(=O)C2C3C=CC(C3)C2C1=O (stereo not drawn) | > 100 µM (inactive) | > 100 µM (inactive) | > 100 µM (inactive) | > 100 µM (inactive) | > 100 µM (inactive) | > 100 µM (inactive) | > 100 µM (inactive) | > 100 µM (inactive) | > 100 µM (inactive) | > 100 µM (inactive) | > 100 µM (inactive) | > 100 µM (inactive) | > 100 µM (inactive) | > 100 µM (inactive) | > 100 µM (inactive) | > 100 µM (inactive) |
| CC1=CCC2CC1C(C(=O)c1c[nH]c3ccccc13)=NC2(C)C (stereo not drawn) | 41.5 µM (inactive) | 50.4 µM (inactive) | 29.4 µM (inactive) | 47.8 µM (inactive) | > 100 µM (inactive) | 87.9 µM (inactive) | > 100 µM (inactive) | > 10 µM (inactive) | 30.8 µM (inactive) | > 100 µM (inactive) | 41.9 µM (inactive) | 81.1 µM (inactive) | 44.4 µM (inactive) | 48.8 µM (inactive) | 27.4 µM (inactive) | 52.4 µM (inactive) |
| O=C(/C=C/c1ccccc1)Oc1cccc(O)c1 | 43.1 µM (inactive) | 16.4 µM (inactive) | 59.6 µM (inactive) | > 100 µM (inactive) | 80.7 µM (inactive) | 44.1 µM (inactive) | > 100 µM (inactive) | 57.8 µM (inactive) | > 100 µM (inactive) | 19.5 µM (inactive) | 25.9 µM (inactive) | 77.8 µM (inactive) | 6.81 µM (inactive) | > 100 µM (inactive) | > 100 µM (inactive) | 19.1 µM (inactive) |
| Nc1nc(Cl)cc(NCC2(CO)CCC(OCc3ccccc3)C2)n1 (stereo not drawn) | 20.7 µM (inactive) | 16.9 µM (inactive) | 1.39 µM (inactive) | 14.8 µM (inactive) | 27.7 µM (inactive) | 8.89 µM (inactive) | 8.24 µM (inactive) | 16.8 µM (inactive) | 8.24 µM (inactive) | 20.8 µM (inactive) | 14.4 µM (inactive) | 35.2 µM (inactive) | 1.31 µM (inactive) | 11.3 µM (inactive) | 12.8 µM (inactive) | 21 µM (inactive) |
| CCOC(=O)N/N=C(/N)Cc1ccccc1 | > 100 µM (inactive) | > 100 µM (inactive) | > 100 µM (inactive) | > 100 µM (inactive) | > 100 µM (inactive) | > 100 µM (inactive) | > 100 µM (inactive) | > 100 µM (inactive) | > 100 µM (inactive) | > 100 µM (inactive) | > 100 µM (inactive) | > 100 µM (inactive) | > 100 µM (inactive) | > 100 µM (inactive) | > 100 µM (inactive) | > 100 µM (inactive) |
